{
  "source": "patent US8673909B2",
  "about": "“Indole compounds and methods for treating visceral pain” (NeurAxon, Inc., priority 2007, dated 2014)",
  "key": {"[1]": {"target": "T1, Nitric oxide synthase (neuronal, human recombinant) nNOS (Homo sapiens, UniProt P29475)", "T1 construct": "purchased Axxora LLC ALX-201-068", "T1 sequence (P29475 whole entry)": "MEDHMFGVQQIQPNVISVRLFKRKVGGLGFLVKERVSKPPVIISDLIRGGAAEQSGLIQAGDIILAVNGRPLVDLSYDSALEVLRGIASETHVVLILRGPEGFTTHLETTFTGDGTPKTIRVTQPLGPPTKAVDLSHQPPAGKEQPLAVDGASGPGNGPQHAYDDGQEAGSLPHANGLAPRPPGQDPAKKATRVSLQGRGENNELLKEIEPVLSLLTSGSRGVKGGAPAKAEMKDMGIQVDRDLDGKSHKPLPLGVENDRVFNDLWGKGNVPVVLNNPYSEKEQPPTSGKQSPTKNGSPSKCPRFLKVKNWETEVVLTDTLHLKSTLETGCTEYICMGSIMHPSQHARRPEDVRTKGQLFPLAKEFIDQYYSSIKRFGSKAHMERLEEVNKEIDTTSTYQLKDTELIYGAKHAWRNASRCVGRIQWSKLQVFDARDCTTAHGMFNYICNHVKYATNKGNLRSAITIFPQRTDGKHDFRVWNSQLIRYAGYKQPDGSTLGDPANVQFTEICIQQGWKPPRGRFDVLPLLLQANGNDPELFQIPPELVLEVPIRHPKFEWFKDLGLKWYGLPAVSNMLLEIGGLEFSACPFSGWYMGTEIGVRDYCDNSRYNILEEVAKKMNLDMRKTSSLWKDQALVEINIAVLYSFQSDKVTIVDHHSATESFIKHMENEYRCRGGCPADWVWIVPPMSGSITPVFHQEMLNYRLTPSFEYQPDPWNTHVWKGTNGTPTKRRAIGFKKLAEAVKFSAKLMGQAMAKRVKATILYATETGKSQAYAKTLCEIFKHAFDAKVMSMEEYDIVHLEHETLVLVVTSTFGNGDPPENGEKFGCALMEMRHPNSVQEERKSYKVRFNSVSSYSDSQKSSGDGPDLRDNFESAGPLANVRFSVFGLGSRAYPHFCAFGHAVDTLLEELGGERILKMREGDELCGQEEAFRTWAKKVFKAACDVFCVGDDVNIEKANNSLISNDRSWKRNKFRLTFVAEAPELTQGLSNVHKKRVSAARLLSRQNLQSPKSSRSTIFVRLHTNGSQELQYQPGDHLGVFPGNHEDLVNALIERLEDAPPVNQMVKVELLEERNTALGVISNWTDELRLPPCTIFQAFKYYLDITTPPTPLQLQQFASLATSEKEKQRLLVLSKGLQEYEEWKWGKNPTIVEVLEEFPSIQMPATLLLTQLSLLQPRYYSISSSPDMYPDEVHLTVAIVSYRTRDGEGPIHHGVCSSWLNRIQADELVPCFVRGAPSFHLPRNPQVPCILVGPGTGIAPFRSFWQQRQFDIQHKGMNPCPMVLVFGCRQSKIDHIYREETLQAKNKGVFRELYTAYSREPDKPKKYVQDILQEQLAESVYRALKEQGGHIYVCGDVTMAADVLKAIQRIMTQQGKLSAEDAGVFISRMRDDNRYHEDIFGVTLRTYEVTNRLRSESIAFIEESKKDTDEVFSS", "experiment": "nNOS (human) enzyme assay, [3H]-L-arginine to L-citrulline", "format": "biochemical", "details": "for IC50: Table 15", "experimental": "nNOS (Human), eNOS (Human) Enzyme Assay\nHuman nNOS and eNOS Protocol:\nProcedure for Human nNOS and eNOS\nPrimary stock solutions of test compounds at a concentration of 6 mM are prepared. The primary stock solutions of each test compound are prepared freshly in distilled water on the day of study. […] Concentration range of test compound utilized for nNOS are 0.001 to 300 μM and for eNOS are 0.003 to 1000 μM. The vehicle of the test compound or inhibitor is used as blank control.\n(§2) All incubations are performed in duplicate:\n(§3) Prepare the reaction mixture on ice by adding the following components with a micropipette to a polypropylene microcentrifuge tube:\nTotal reaction volume is 60 μL.\n(§4) Mix using a vortex mixer and incubate the above reaction mixture at 37° C. in an incubator for 30 minutes.\n(§5) Add 400 μL of ice-cold Stop Buffer at the end of the incubation period to stop the reaction. (The EDTA in the Stop Buffer chelates all of the available calcium.)\n(§6) Mix using a vortex mixer and transfer the reaction samples to spin cups and centrifuge using a microcentrifuge, at 13,000 rpm for 30 sec. at room temperature.\n(§7) Remove the spin cups from the holder and transfer 450 μL of eluate (containing the unbound L-citrulline) to scintillation vials. Add 3 mL of scintillation fluid and quantify the radioactivity in a liquid scintillation counter.\nCalculation of IC50 Values:\n(§8) Data is analyzed using a Sigmoidal dose-response (variable slope) curve to determine the IC50 value of the test compound. Y=Bottom+(Top−Bottom)/(1+10^((Log IC50−X)*Hill Slope))"}, "[2]": {"target": "T2, Nitric oxide synthase (endothelial, human recombinant) eNOS (Homo sapiens, UniProt P29474)", "T2 construct": "purchased Axxora LLC ALX-201-070", "T2 sequence (P29474 whole entry)": "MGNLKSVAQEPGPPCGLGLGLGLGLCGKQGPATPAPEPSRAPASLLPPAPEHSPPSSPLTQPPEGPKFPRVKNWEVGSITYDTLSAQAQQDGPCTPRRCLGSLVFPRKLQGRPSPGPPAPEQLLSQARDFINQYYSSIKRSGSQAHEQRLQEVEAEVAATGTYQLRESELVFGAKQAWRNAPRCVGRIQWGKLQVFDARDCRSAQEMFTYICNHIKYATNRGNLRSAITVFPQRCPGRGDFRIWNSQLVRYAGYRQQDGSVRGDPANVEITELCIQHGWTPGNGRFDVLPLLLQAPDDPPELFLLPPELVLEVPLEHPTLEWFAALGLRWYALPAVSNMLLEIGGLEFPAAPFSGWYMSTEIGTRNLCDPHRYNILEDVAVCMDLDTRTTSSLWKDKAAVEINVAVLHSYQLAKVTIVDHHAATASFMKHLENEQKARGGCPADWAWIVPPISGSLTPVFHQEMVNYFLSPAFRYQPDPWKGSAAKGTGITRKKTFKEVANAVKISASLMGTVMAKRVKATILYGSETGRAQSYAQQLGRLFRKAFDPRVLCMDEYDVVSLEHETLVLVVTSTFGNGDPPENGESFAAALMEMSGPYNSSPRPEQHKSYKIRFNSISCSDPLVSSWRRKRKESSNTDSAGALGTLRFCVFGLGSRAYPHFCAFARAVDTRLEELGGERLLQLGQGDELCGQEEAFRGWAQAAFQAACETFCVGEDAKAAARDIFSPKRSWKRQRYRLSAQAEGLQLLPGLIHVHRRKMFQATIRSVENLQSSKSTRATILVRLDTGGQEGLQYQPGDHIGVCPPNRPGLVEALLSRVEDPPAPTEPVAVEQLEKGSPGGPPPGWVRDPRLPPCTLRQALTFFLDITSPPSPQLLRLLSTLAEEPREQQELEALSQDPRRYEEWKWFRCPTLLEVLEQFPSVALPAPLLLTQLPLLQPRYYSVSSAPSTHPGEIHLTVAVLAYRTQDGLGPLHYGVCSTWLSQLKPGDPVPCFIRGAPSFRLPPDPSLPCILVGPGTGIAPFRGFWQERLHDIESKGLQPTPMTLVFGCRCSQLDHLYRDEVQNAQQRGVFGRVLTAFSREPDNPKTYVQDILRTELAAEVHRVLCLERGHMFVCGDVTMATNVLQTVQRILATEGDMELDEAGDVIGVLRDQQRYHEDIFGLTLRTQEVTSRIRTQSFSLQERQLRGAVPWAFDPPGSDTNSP", "experiment": "eNOS (human) enzyme assay, [3H]-L-arginine to L-citrulline", "format": "biochemical", "details": "for IC50: Table 15, read-out: IC50 in μM (Human eNOS)", "experimental": "Human nNOS and eNOS Protocol:\nProcedure for Human nNOS and eNOS\nPrimary stock solutions of test compounds at a concentration of 6 mM are prepared. The primary stock solutions of each test compound are prepared freshly in distilled water on the day of study. […] Concentration range of test compound utilized for nNOS are 0.001 to 300 μM and for eNOS are 0.003 to 1000 μM. The vehicle of the test compound or inhibitor is used as blank control. […] The IC50 concentration of L-NAME was run in parallel as a control.\nas §2, §3\nStart the reaction by addition of the substrate (in 5 µL containing 1 μCi of [^3H]-L-Arginine+2.5 μM of unlabeled L-Arginine) to the reaction mixture. Total reaction volume is 60 μL.\nas §4, §5, §6, §7\nCalculation of IC50 Values:\nas §8"}, "[3]": {"target": "Recombinant human inducible NOS (iNOS) (Homo sapiens, UniProt P35228)", "experiment": "Human iNOS assay, radiometric", "format": "biochemical", "details": "Table 10, human iNOS; read-out: iNOSh", "method": "Recombinant human inducible NOS (iNOS) was produced in Baculovirus-infected Sf9 cells (ALEXIS). […] 15 μL of test substances are added to the mixture with the specific enzyme and pre-incubated at RT for 15 min. • 2. […] The incubation is carried out at 37° C. for 45 min. • 4. […] An aliquot 70 μL of the supernatant is added to 100 μL scintillation fluid. • 8.\nThe total volume of the reaction mixture is 150 μL in every well. All assays are performed at least in duplicate. Standard deviations are 10% or less."}, "5-HT1D": {"target": "5-HT1D (Bos taurus, UniProt F1MMU1)", "sequence (F1MMU1 1-377)": "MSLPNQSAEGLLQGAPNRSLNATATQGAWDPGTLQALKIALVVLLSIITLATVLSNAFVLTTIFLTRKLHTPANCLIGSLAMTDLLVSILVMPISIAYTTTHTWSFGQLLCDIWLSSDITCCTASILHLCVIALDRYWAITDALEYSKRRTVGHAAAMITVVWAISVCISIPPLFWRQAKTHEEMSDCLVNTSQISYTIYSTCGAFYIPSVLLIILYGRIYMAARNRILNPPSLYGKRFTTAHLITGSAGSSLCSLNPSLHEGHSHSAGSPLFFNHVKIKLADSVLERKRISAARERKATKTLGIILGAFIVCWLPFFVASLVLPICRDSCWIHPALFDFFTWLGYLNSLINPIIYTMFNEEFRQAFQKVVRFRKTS", "experiment": "5-HT1D binding assay (agonist radioligand), bovine caudate membranes", "method": "(§1) 5-HT1D binding assays (agonist radioligand) were performed using bovine caudate membranes according to the methods of Heuring and Peroutka (J. Neurosci., 7: 894-903 (1987)). 5-HT1B (rat cerebral cortex) binding assays (agonist radioligand) were performed according to the method of Hoyer et. al. (Eur. J. Pharmacol., 118: 1-12 (1995)). For the purpose of result analysis, the specific ligand binding to the receptors is defined as the difference between the total binding and the nonspecific binding as determined in the presence of an excess of unlabelled ligand. The results are expressed as a percent of control specific binding obtained in the presence of the test compounds."}, "5-HT1B": {"target": "T3, 5-HT1B (Rattus norvegicus, UniProt P28564)", "T3 construct": "from tissue; host or cells: rat cerebral cortex", "T3 sequence (P28564 whole entry)": "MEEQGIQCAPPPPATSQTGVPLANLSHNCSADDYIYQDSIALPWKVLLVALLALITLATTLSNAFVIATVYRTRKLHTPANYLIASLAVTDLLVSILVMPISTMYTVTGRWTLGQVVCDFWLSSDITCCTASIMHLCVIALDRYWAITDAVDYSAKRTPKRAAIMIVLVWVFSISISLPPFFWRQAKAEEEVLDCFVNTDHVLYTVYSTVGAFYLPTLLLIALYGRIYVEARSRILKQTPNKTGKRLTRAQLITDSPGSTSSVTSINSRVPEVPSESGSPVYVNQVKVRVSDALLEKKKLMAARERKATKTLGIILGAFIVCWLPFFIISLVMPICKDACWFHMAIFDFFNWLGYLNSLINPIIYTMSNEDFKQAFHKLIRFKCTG", "experiment": "5-HT1B binding assay (agonist radioligand), rat cerebral cortex", "method": "as §1, with “compounds. IC50 values (concentration causing a half-maximal inhibition of control specific binding) and Hill coefficients (nH) were determined by non-linear regression analysis of the competition curves using Hill equation curve fitting and the inhibition constants (Ki) were calculated from the Cheng Prusoff equation (Ki=IC50/(1+(L/KD)), where L=concentration of radioligand in the assay, and KD=affinity of the radioligand for the receptor).” for “compounds.”"}, "[4]": {"tested_on": "rats with experimental pancreatitis", "experiment": "Pancreatitis visceral pain model (DBTC), referred abdominal hypersensitivity, von Frey", "format": "in vivo, rat", "method": "Adult male Sprague Dawley rats (Harlan, Indianapolis, Ind.), weighing 150-200 g were maintained in a climate-controlled room with ad lib food and water on a 12-h light/dark cycle (lights on at 07:00 hours). All procedures followed the policies of the International Association for the Study of Pain and the NIH guidelines for the handling and use of laboratory animals. Studies were approved by the University of Arizona IACUC.\nPancreatitis was produced by a tail vein injection of dibutyltin dichloride (DBTC, Aldrich, Milwaukee, Wis., 0.25 cc) dissolved in 100% ethanol at a dose of 8 mg/kg under isofluorane anesthesia (2-3 liters/min, 4.0%/vol until anesthetized, then 2.5%/vol throughout the procedure) (Vera-Portocarrero et al., 2006). Control animals were injected with the vehicle solution only (100% ethanol, 0.25 cc).\nReferred abdominal hypersensitivity in the pancreatitis model was quantified by measuring the number of withdrawals events evoked by application of a calibrated von Frey filament (determined by either abdominal withdrawal, licking of the abdominal area, or whole body withdrawal). Rats were placed inside Plexiglas boxes on an elevated fine fiberglass screen mesh and acclimated for 30 minutes before testing. A 4 g von Frey filament was applied from underneath through the mesh floor, to the abdominal area at different points on the surface. […] The mean occurrence of withdrawal events in each trial is expressed as the number of responses to 10 applications as previously described (Vera-Portocarrero et al., 2003).\nSignificant differences between each experimental group for the behavioral test across time were detected by a two-factor ANOVA follow by the Fishers Least Significance Difference post-hoc test. One-factor ANOVA was used to detect significant differences in behavioral outcomes within each experimental group over time. A linear regression analysis was used to detect the dose-dependency of the effects. Significance was established at the p<0.05 level."}, "[5]": {"details": "Table 11, bovine 1D receptor binding, read-out: 5HT1D"}},
  "note": "pIC50: −log10 of the molar value. Structures can show the parent of a compound that is named as a salt. Where two headings read alike, the source gives them in different places.",
  "data": [
    {"compound": "CN1CCC(c2c[nH]c3ccc(NC(=N)c4cccs4)cc23)C1", "note": "(racemic) [Compound 6, N-(3-(1-methylpyrrolidin-3-yl)-1H-indol-5-yl)thiophene-2-carboximidamide]", "values": [
      {"measurement": "pIC50", "setting": "[1]; Table 10, human nNOS, read-out: nNOSh", "value": 6.40},
      {"measurement": "e/n", "setting": "[1]; Table 10, ratio eNOS/nNOS", "value": 97},
      {"measurement": "pIC50", "setting": "[2]; Table 10, human eNOS, read-out: eNOSh", "value": 4.41},
      {"measurement": "pIC50", "setting": "[3]", "value": 4.46},
      {"measurement": "pIC50", "setting": "5-HT1D; [5]", "value": 6.72},
      {"measurement": "pIC50", "setting": "5-HT1B; Table 11, rat 1B receptor binding", "value": 6.07}
    ]},
    {"compound": "N=C(Nc1ccc2[nH]cc(CCN3CCCC3)c2c1)c1cccs1", "note": "[Compound 25, N-(3-(2-(pyrrolidin-1-yl)ethyl)-1H-indol-5-yl)thiophene-2-carboximidamide]", "values": [
      {"measurement": "IC50", "setting": "[1]; IC50 in μM (Human nNOS)", "value": 0.427, "unit": "µM"},
      {"measurement": "eNOS/nNOS", "setting": "[1]; Table 15, selectivity ratio", "value": 23.2},
      {"measurement": "IC50", "setting": "[2]", "value": 9.92, "unit": "µM"}
    ]},
    {"compound": "CNC1CCCC(c2c[nH]c3ccc(NC(=N)c4cccs4)cc23)C1", "note": "(single isomer, unassigned) [Compound 20b, N-(3-(3-(methylamino)cyclohexyl)-1H-indol-5-yl)thiophene-2-carboximidamide dihydrochloride]", "values": [
      {"measurement": "pIC50", "setting": "[2]; Table 14, read-out: Human eNOS", "value": 4.12},
      {"measurement": "pIC50", "setting": "5-HT1D; read-out: 5HT 1D, Table 14, listed as 20b (isomer-2), dihydrochloride", "value": 5.85},
      {"measurement": "pIC50", "setting": "5-HT1B; Table 14, read-out: 5HT 1B", "value": 4.92}
    ]},
    {"compound": "CNS(=O)(=O)Cc1ccc2[nH]cc(CCN(C)C)c2c1", "note": "[Sumatriptan, reference compound]", "values": [
      {"measurement": "pIC50", "setting": "5-HT1D; [5]", "value": 7.23}
    ]},
    {"compound": "CNC1CCCC(c2c[nH]c3ccc(NC(=N)c4cccs4)cc23)C1", "note": "(racemic) [Compound (±)-20, N-(3-((1S,3R)-3-(Methylamino)cyclohexyl)-1H-indol-5-yl)thiophene-2-carboximidamide]", "values": [
      {"measurement": "pIC50", "setting": "5-HT1D; read-out: 5HT 1D, Table 14", "value": 5.55},
      {"measurement": "pIC50", "setting": "5-HT1B; Table 14, read-out: 5HT 1B", "value": 4.70}
    ]},
    {"compound": "CCN1CC=C(c2c[nH]c3ccc(NC(=N)c4cccs4)cc23)CC1", "note": "[Compound 19, N-(3-(1-ethyl-1,2,3,6-tetrahydropyridin-4-yl)-1H-indol-5-yl)thiophene-2-carboximidamide]", "values": [
      {"measurement": "eNOS/nNOS", "setting": "[1]; Table 13, selectivity ratio", "value": 92.4},
      {"measurement": "pIC50", "setting": "[1]; Table 13, read-out: Human nNOS", "value": 6.13},
      {"measurement": "pIC50", "setting": "[2]; Table 13, read-out: Human eNOS", "value": 4.16}
    ]},
    {"compound": "CN1CCC[C@@H]1Cc1c[nH]c2ccc(NC(=N)c3cccs3)cc12", "note": "[Compound 27, (R)—N-(3-((1-Methylpyrrolidin-2-yl)methyl)-1H-indol-5-yl)thiophene-2-carboximidamide]", "values": [
      {"measurement": "reversal of tactile allodynia in pancreatitis visceral pain model", "setting": "[4]", "value": "reverts the tactile allodynia"}
    ]},
    {"compound": "CCNC1CCC(c2c[nH]c3ccc(NC(=N)c4cccs4)cc23)C1", "note": "(mixture of isomers) [Compound 26, N-(3-(3-(ethylamino)cyclopentyl)-1H-indol-5-yl)thiophene-2-carboximidamide]", "values": [
      {"measurement": "eNOS/nNOS", "setting": "[1]; Table 15, selectivity ratio", "value": 55.6}
    ]},
    {"compound": "N=C(Nc1ccc2[nH]cc(C3=CCN(CCO)CC3)c2c1)c1cccs1", "note": "[Compound 24, N-(3-(1-(2-hydroxyethyl)-1,2,3,6-tetrahydropyridin-4-yl)-1H-indol-5-yl)thiophene-2-carboximidamide]", "values": [
      {"measurement": "eNOS/nNOS", "setting": "[1]; Table 15, selectivity ratio", "value": 99},
      {"measurement": "IC50", "setting": "[1]; read-out: IC50 in μM (Human nNOS)", "value": 0.748, "unit": "µM"},
      {"measurement": "IC50", "setting": "[2]", "value": 74.1, "unit": "µM"}
    ]},
    {"compound": "CNC1CCCC(c2c[nH]c3ccc(NC(=N)c4cccs4)cc23)C1", "note": "(single isomer, unassigned) [Compound 20a, N-(3-(3-(methylamino)cyclohexyl)-1H-indol-5-yl)thiophene-2-carboximidamide dihydrochloride]", "values": [
      {"measurement": "pIC50", "setting": "[2]; Table 14, read-out: Human eNOS", "value": 4.31},
      {"measurement": "pIC50", "setting": "5-HT1D; read-out: 5HT 1D, Table 14, listed as 20a (isomer-1), dihydrochloride", "value": 5.49},
      {"measurement": "pIC50", "setting": "5-HT1B; Table 14, read-out: 5HT 1B", "value": 5.89}
    ]}
  ]
}
